Measured values taken from patent US20200187502A1, “MICROBIOCIDAL OXADIAZOLE DERIVATIVES” (SYNGENTA PARTICIPATIONS AG, priority 2017, published 2020).

Legend:
[1] = system: Puccinia recondita f. Sp. Tritici; test: Fungicidal activity, wheat leaf disc preventative (brown rust); assay type: in vivo; conditions: foliar, 200 ppm in the applied formulation, wheat leaf segments cv. Kanzler, compared to untreated control, 7 to 9 days after application, read-out: disease control
Summary of the method: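 Preventative leaf-segment test: spray application of diluted formulated compound on wheat cv. Kanzler, spore inoculation after 1 day. Percent control relative to untreated segments rated 7 to 9 days post-application, with incubation at 19° C, 75% relative humidity, 12 h photoperiod.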

[2] = system: Puccinia recondita f. Sp. Tritici; test: Fungicidal activity, wheat leaf disc curative (brown rust); assay type: in vivo; conditions: foliar, 200 ppm in the applied formulation, wheat leaf segments cv. Kanzler, curative (applied 1 day after inoculation), compared to untreated control, 6 to 8 days after application, read-out: disease control
Method: Leaf disks or leaf segments of various plant species are cut from plants grown in a greenhouse. The cut leaf disks or segments are placed in multiwell plates (24-well format) onto water agar. The leaf disks are sprayed with a test solution before (preventative) or after (curative) inoculation. Compounds to be tested are prepared as DMSO solutions (max. 10 mg/ml) which are diluted to the appropriate concentration with 0.025% Tween20 just before spraying. The inoculated leaf disks or segments are incubated under defined conditions (temperature, relative humidity, light, etc.) according to the respective test system. A single evaluation of disease level is carried out 3 to 14 days after inoculation, depending on the pathosystem. Percent disease control relative to the untreated check leaf disks or segments is then calculated.
Wheat leaf segments cv. Kanzler are placed on agar in multiwell plates (24-well format). The leaf segments are then inoculated with a spore suspension of the fungus. Plates were stored in darkness at 19° C. and 75% relative humidity. The formulated test compound diluted in water was applied 1 day after inoculation. The leaf segments were incubated at 19° C. and 75% relative humidity under a light regime of 12 hours light/12 hours darkness in a climate cabinet and the activity of a compound was assessed as percent disease control compared to untreated when an appropriate level of disease damage appears in untreated check leaf segments (6 to 8 days after application).
The following compounds at 200 ppm in the applied formulation give at least 80% disease control in this test when compared to untreated control leaf disks under the same conditions, which show extensive disease development.

[3] = system: Glomerella lacenarium (Colletotrichum lacenarium); test: Fungicidal activity, liquid culture, cucumber preventative (anthracnose); assay type: cell-based; conditions: 20 ppm in the applied formulation, liquid culture in PDB, inhibition of growth measured photometrically 3 to 4 days after application, compared to untreated control, read-out: disease control
Summary of the method: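 Spore-based broth assay: conidia mixed into PDB meet compound from a DMSO solution in 96-well format, incubate at 24° C., then inhibition of growth is determined by photometry 3–4 days later relative to the untreated check.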

CN(Cc1ccc(-c2noc(C(F)(F)F)n2)s1)C(=O)CC#N [Compound 4.39, 2-cyano-N-methyl-N-[[5[5-(trifluoromethyl)-1,2,4-oxadiazol-3-yl]-2-thienyl]methyl]acetamide]
≥ 80%: pest or weed control at 200 ppm [1] | pest or weed control at 200 ppm [2] | inhibition of growth at 20 ppm [3]

CC(=O)N(C)Cc1ccc(-c2noc(C(F)(F)F)n2)s1 [Compound 4.41, N-methyl-N-[[5-[5-(trifluoromethyl)-1,2,4-oxadiazol-3-yl]-2-thienyl]methyl]acetamide]
≥ 80%: pest or weed control at 200 ppm [1] | pest or weed control at 200 ppm [2] | inhibition of growth at 20 ppm [3]

COCC(=O)N(Cc1ccc(-c2noc(C(F)(F)F)n2)s1)C(C)C [Compound 4.42, N-isopropyl-2-methoxy-N-[[5-[5-(trifluoromethyl)-1,2,4-oxadiazol-3-yl]-2-thienyl]methyl]acetamide]
≥ 80%: pest or weed control at 200 ppm [1] | pest or weed control at 200 ppm [2] | inhibition of growth at 20 ppm [3]

CC(=O)NCC(=O)N(Cc1ccc(-c2noc(C(F)(F)F)n2)s1)C(C)C [Compound 4.43, 2-acetamido-N-isopropyl-N-[[5-[5-(trifluoromethyl)-1,2,4-oxadiazol-3-yl]-2-thienyl]methyl]acetamide]
≥ 80%: pest or weed control at 200 ppm [1] | pest or weed control at 200 ppm [2] | inhibition of growth at 20 ppm [3]

CCCC(=O)N(Cc1ccc(-c2noc(C(F)(F)F)n2)s1)C(C)C [Compound 4.44, N-isopropyl-N-[[5-[5-(trifluoromethyl)-1,2,4-oxadiazol-3-yl]-2-thienyl]methyl]butanamide]
≥ 80%: pest or weed control at 200 ppm [1] | pest or weed control at 200 ppm [2] | inhibition of growth at 20 ppm [3]

COCCCC(=O)N(Cc1ccc(-c2noc(C(F)(F)F)n2)s1)C(C)C [Compound 4.48, N-isopropyl-4-methoxy-N-[[5-[5-(trifluoromethyl)-1,2,4-oxadiazol-3-yl]-2-thienyl]methyl]butanamide]
≥ 80%: pest or weed control at 200 ppm [1] | pest or weed control at 200 ppm [2] | inhibition of growth at 20 ppm [3]

CC(C)N(Cc1ccc(-c2noc(C(F)(F)F)n2)s1)C(=O)CC#N [Compound 4.49, 2-cyano-N-isopropyl-N-[[5-[5-(trifluoromethyl)-1,2,4-oxadiazol-3-yl]-2-thienyl]methyl]acetamide]
≥ 80%: pest or weed control at 200 ppm [1] | pest or weed control at 200 ppm [2] | inhibition of growth at 20 ppm [3]

CC(C)N(Cc1ccc(-c2noc(C(F)(F)F)n2)s1)C(=O)CC(F)(F)F [Compound 4.50, 3,3,3-trifluoro-N-isopropyl-N-[[5-[5-(trifluoromethyl)-1,2,4-oxadiazol-3-yl]-2-thienyl]methyl]propanamide]
≥ 80%: pest or weed control at 200 ppm [1] | pest or weed control at 200 ppm [2] | inhibition of growth at 20 ppm [3]

CC(=O)NCC(=O)N(Cc1ccc(-c2noc(C(F)(F)F)n2)s1)C1CC1 [Compound 4.53, 2-acetamido-N-cyclopropyl-N-[[5-[5-(trifluoromethyl)-1,2,4-oxadiazol-3-yl]-2-thienyl]methyl]acetamide]
≥ 80%: pest or weed control at 200 ppm [1] | pest or weed control at 200 ppm [2] | inhibition of growth at 20 ppm [3]

N#CCC(=O)N(Cc1ccc(-c2noc(C(F)(F)F)n2)s1)C1CC1 [Compound 4.59, 2-cyano-N-cyclopropyl-N-[[5-[5-(trifluoromethyl)-1,2,4-oxadiazol-3-yl]-2-thienyl]methyl]acetamide]
≥ 80%: pest or weed control at 200 ppm [1] | pest or weed control at 200 ppm [2] | inhibition of growth at 20 ppm [3]

COCC(=O)N(Cc1ccc(-c2noc(C(F)(F)F)n2)s1)OCC(F)F [Compound 4.62, N-(2,2-difluoroethoxy)-2-methoxy-N-[[5-[5-(trifluoromethyl)-1,2,4-oxadiazol-3-yl]-2-thienyl]methyl]acetamide]
≥ 80%: pest or weed control at 200 ppm [1] | pest or weed control at 200 ppm [2] | inhibition of growth at 20 ppm [3]

CCCC(=O)N(Cc1ccc(-c2noc(C(F)(F)F)n2)s1)OCC(F)F [Compound 4.63, N-(2,2-difluoroethoxy)-N-[[5-[5-(trifluoromethyl)-1,2,4-oxadiazol-3-yl]-2-thienyl]methyl]butanamide]
≥ 80%: pest or weed control at 200 ppm [1] | pest or weed control at 200 ppm [2] | inhibition of growth at 20 ppm [3]

COCCCC(=O)N(Cc1ccc(-c2noc(C(F)(F)F)n2)s1)OCC(F)F [Compound 4.67, N-(2,2-difluoroethoxy)-4-methoxy-N-[[5-[5-(trifluoromethyl)-1,2,4-oxadiazol-3-yl]-2-thienyl]methyl]butanamide]
≥ 80%: pest or weed control at 200 ppm [1] | pest or weed control at 200 ppm [2] | inhibition of growth at 20 ppm [3]

CCN(CC)C(=O)N(CC)Cc1ccc(-c2noc(C(F)(F)F)n2)s1 [Compound 4.73, 1,1,3-triethyl-3-[[5-[5-(trifluoromethyl)-1,2,4-oxadiazol-3-yl]-2-thienyl]methyl]urea]
≥ 80%: pest or weed control at 200 ppm [1] | pest or weed control at 200 ppm [2] | inhibition of growth at 20 ppm [3]

CCN(Cc1ccc(-c2noc(C(F)(F)F)n2)s1)C(=O)N(CCOC)CCOC [Compound 4.74, 1-ethyl-3,3-bis(2-methoxyethyl)-1-[[5-[5-(trifluoromethyl)-1,2,4-oxadiazol-3-yl]-2-thienyl]methyl]urea]
≥ 80%: pest or weed control at 200 ppm [1] | pest or weed control at 200 ppm [2] | inhibition of growth at 20 ppm [3]

COCCN(CCOC)C(=O)N(C)Cc1ccc(-c2noc(C(F)(F)F)n2)s1 [Compound 4.80, 1,1-bis(2-methoxyethyl)-3-methyl-3-[[5-[5-(trifluoromethyl)-1,2,4-oxadiazol-3-yl]-2-thienyl]methyl]urea]
≥ 80%: pest or weed control at 200 ppm [1] | pest or weed control at 200 ppm [2] | inhibition of growth at 20 ppm [3]

CC(C)N(Cc1ccc(-c2noc(C(F)(F)F)n2)s1)C(=O)N(C)CC#N [Compound 4.82, 1-(cyanomethyl)-3-isopropyl-1-methyl-3-[[5-[5-(trifluoromethyl)-1,2,4-oxadiazol-3-yl]-2-thienyl]methyl]urea]
≥ 80%: pest or weed control at 200 ppm [1] | pest or weed control at 200 ppm [2] | inhibition of growth at 20 ppm [3]

COCCNC(=O)N(Cc1ccc(-c2noc(C(F)(F)F)n2)s1)C(C)C [Compound 4.84, 1-isopropyl-3-(2-methoxyethyl)-1-[[5-[5-(trifluoromethyl)-1,2,4-oxadiazol-3-yl]-2-thienyl]methyl]urea]
≥ 80%: pest or weed control at 200 ppm [1] | pest or weed control at 200 ppm [2] | inhibition of growth at 20 ppm [3]

CN(CC#N)C(=O)N(Cc1ccc(-c2noc(C(F)(F)F)n2)s1)C1CC1 [Compound 4.86, 1-(cyanomethyl)-3-cyclopropyl-1-methyl-3-[[5-[5-(trifluoromethyl)-1,2,4-oxadiazol-3-yl]-2-thienyl]methyl]urea]
≥ 80%: pest or weed control at 200 ppm [1] | pest or weed control at 200 ppm [2] | inhibition of growth at 20 ppm [3]

CCN(CC)C(=O)N(Cc1ccc(-c2noc(C(F)(F)F)n2)s1)C1CC1 [Compound 4.90, 1-cyclopropyl-3,3-diethyl-1-[[5-[5-(trifluoromethyl)-1,2,4-oxadiazol-3-yl]-2-thienyl]methyl]urea]
≥ 80%: pest or weed control at 200 ppm [1] | pest or weed control at 200 ppm [2] | inhibition of growth at 20 ppm [3]

COCCN(CCOC)C(=O)N(Cc1ccc(-c2noc(C(F)(F)F)n2)s1)C1CC1 [Compound 4.91, 1-cyclopropyl-3,3-bis(2-methoxyethyl)-1-[[5-[5-(trifluoromethyl)-1,2,4-oxadiazol-3-yl]-2-thienyl]methyl]urea]
≥ 80%: pest or weed control at 200 ppm [1] | pest or weed control at 200 ppm [2] | inhibition of growth at 20 ppm [3]
